Assay results taken from patent publication US4238508A, “Method for analgesia using 3-hydroxyacetanilide” (The Research Foundation of State University of New York, priority 1979, dated 1980).

Columns and labels:
liver [1] = conditions: acetaminophen-induced hepatic injury, mice; cited from earlier work
in vivo = experiment: in vivo; design: species or system white mice; conditions: mouse; for survival at 96 h: ip
Experimental: ^(a) Mortality determined at 96 hours, all drugs given
intraperitoneally dissolved in saline at 42° C.
receiving same mg dose or saline controls and all acetaminophen groups p
<0.005 using chi square test.

[2] = tested on: plasma glutamate-pyruvate transaminase (GPT); conditions: mice, acetaminophen-induced hepatic injury; cited from earlier work
[3] = tested on: plasma glutamate-pyruvate transaminase (GPT); experiment: Plasma glutamate-pyruvate transaminase (GPT) activity in mice; assay type: in vivo; conditions: for Effect on transaminase activity: 600 mg/kg acetaminophen, 900 mg/kg 3-hydroxyacetanilide; for Transaminase activity in plasma, Mean ± SD: saline 32 ± 18
Experimental: (§1) The relative effects of 3-hydroxyacetanilide and acetaminophen were compared on plasma glutamate-pyruvate transaminase (GPT) activity. 600 mg/kg of acetaminophen were used in the test; whereas, a larger quantity, 900 mg/kg, of 3-hydroxyacetanilide was used. […] Activity was measured spectrophotometrically at room temperature using a Sigma® Enzyme Kit. The activity is expressed in micromoles per minute per […] of plasma. The blood for the test was collected in a small amount of heparin. Assays were performed within two hours after obtaining the blood. […] There appears to be a correlation between drug dose, amounts of necrosis seen histologically and elevation of transaminase levels.

[4] = Mouse writhing test with 1% acetic acid; assay type: in vivo; conditions: for Writhes per 5 Minute (SD): 30 minutes prior to test, control 23.2 ± 5.3
Experimental: To test the effectiveness of 3-hydroxyacetanilide as an analgesic when compared to acetaminophen, a mouse writhing test was used wherein 1% acetic acid is given intraperitoneally 5 minutes prior to counting abdominal writhes made by the animal. The dose of the 1% […] is 0.01 cc/gm of body weight. Prior to counting the writhes, acetaminophen and 3-hydroxyacetanilide were given subcutaneously 30 minutes prior to the test. The control was given normal saline. […] This example therefore illustrates that 3-hydroxyacetanilide is unexpectedly as good an analgesic in this test as acetaminophen and should therefore be used in dosages similar to the dosages known to be effective for actaminophen and since it has almost the same analgesic effect in mice as acetaminophen, it would be expected to have the same analgesic effect as acetaminophen in other mammals.

liver [5] = experiment: Gross appearance of livers of mice that died after injection; conditions: white mice
Experimental: Doses of 400, 600 and 900 milligrams per kilogram of 3-hydroxyacetanilide, of acetaminophen and of normal saline control were administered to white mice.

liver glutathione = experiment: Effect on liver glutathione levels in mice; assay type: in vivo, mouse; conditions: 600 mg/kg i.p.; for Depletion of mouse liver glutathione: two hours; for Liver glutathione level: two hours after injection, saline 8.2 ± 0.9
Experimental: A number of mice were given doses of acetaminophen and 3-hydroxyacetanilideat levels of 600 mg/kg of body weight and a number of mice were given normal saline as a control. […] All values were determined at two hours after intraperitoneal drug injection.

[6] = British Pat. No. 1,006,558; cited from earlier work
liver [7] = experiment: Hepatic necrosis; assay type: in vivo, mice; conditions: compared with acetaminophen
Experimental: as §1

[8] = Roberts and Jollow; cited from earlier work

In the case of `CC(=O)Nc1ccc(O)cc1` [Acetaminophen, 4-hydroxyacetanilide, reference compound], the “Hepatic injury, histology” value (liver [1]) is given as “centrilobular necrosis”, the survival at 96 h (in vivo; 400 mg/kg) is given as 40% and the survival at 96 h (in vivo; 600 mg/kg) is given as 20%. The survival at 96 h (in vivo; 900 mg/kg) was 20%, the “Time of maximum plasma transaminase levels after dose” value [2] was “approximately 6 hours” and the “Effect on transaminase activity” value [3] was “drastically affects the transaminase activity”. The “Transaminase activity in plasma, Mean ± SD” value ([3]; 600 mg/kg, n 9) was 1834 ± 771 IU/ml Plasma, the “Writhes per 5 Minute (SD)” value ([4]; 200 mg/kg s.c.) was 10.0 ± 6.2 and the “Writhes per 5 Minute (SD)” value ([4]; 400 mg/kg s.c.) was 3.5 ± 4.0. The “Reduction of the number of writhes per 5 minutes” value ([4]; s.c., 200 and 400 mg/kg) was “effectively reduced the number of writhes per 5 minutes”, the “Gross appearance of liver in mice which died” value (liver [5]) was “large and grossly congested in appearance” and the “Depletion of mouse liver glutathione” value (liver glutathione) was “rapid depletion”. The Liver glutathione level (liver glutathione) was 2.4 ± 0.6 mg/gram liver.
In the case of `CC(=O)Nc1cccc(O)c1` [3-hydroxyacetanilide], the Anti-pyretic activity [6] is listed as “has anti-pyretic activity”, the “Mortality compared with a comparable dose of acetaminophen” value (in vivo) is listed as “considerably less mortality” and the survival at 96 h (in vivo; 400 mg/kg) is listed as 96%. For the same compound, the survival at 96 h (in vivo; 600 mg/kg) was 96%, the survival at 96 h (in vivo; 900 mg/kg) was 91% and the Hepatic necrosis (liver [7]) was “did not cause a similar level of hepatic necrosis”. The “Effect on transaminase activity” value [3] was “much less effect”, the “Transaminase activity in plasma, Mean ± SD” value ([3]; 900 mg/kg, n 17) was 23 ± 5 IU/ml Plasma and the “Elevation in plasma GPT activity” value ([3]; 900 mg/kg, up to 48 hours after treatment) was “No significant elevation”. The “Writhes per 5 Minute (SD)” value ([4]; 200 mg/kg s.c.) was 11.6 ± 8.1, the “Writhes per 5 Minute (SD)” value ([4]; 400 mg/kg s.c.) was 1.3 ± 1.4 and the “Analgesic effect compared with acetaminophen” value ([4]; s.c., 200 and 400 mg/kg) was “statistically insignificant differences”. For the same compound, the “Reduction of the number of writhes per 5 minutes” value ([4]; s.c., 200 and 400 mg/kg) was “effectively reduced the number of writhes per 5 minutes”, the “Gross appearance of liver in mice which died” value (liver [5]) was “no significant gross abnormality of the liver” and the “Depletion of mouse liver glutathione” value (liver glutathione) was “much less depletion”. The Liver glutathione level (liver glutathione) was 6.2 ± 1.2 mg/gram liver and the “Hepatotoxicity relative to acetaminophen” value [8] was “substantially less hepatotoxic than acetaminophen”.
